The target of test [1] is Cdk2-cyclin A (Homo sapiens, UniProt P24941). The experiment in a line: In vitro kinase assay, Cdk2-cyclin A (in-house). It is filed as biochemical. As for the experimental part:
(§1) The in vitro kinase assays for testing against Cdk4-cyclin D1, Cdk2-cyclin A, Cdk1-cyclin B1 and Cdk9-cyclin T1 were performed in-house. The methodology and results have been reported previously.[20], [30], [31], [32], [45] The kinase profiling for 58 representative kinases was carrried out commercially at Millipore Bioscience Division, Livingston, UK.

Test [2] concerns the target Cdk1-cyclin B1 (Homo sapiens, UniProt P06493). The experiment in a line: In vitro kinase assay, Cdk1-cyclin B1 (in-house). Particulars: three independent experiments; read-out: IC50 (mean±S.D.), Cdk1-cyclin B1. It is filed as biochemical. As to the method: as §1
The target of test [3] is Cdk9-cyclin T1 (Homo sapiens, UniProt P50750). The test can be described thus: In vitro kinase assay, Cdk9-cyclin T1 (in-house). The test is classed as biochemical. The settings on record: three independent experiments; read-out: IC50 (mean±S.D.), Cdk9-cyclin T1. As to the method:
as §1

Test [4] concerns pBluescript plasmid DNA. The experiment in a line: EtBr displacement assay. The settings on record: 1.3 μM EtBr. The test is classed as binding. As to the method: The assays were performed in a 96-well plate with clear bottom (Costar, Washington, DC, USA). The assay involved the addition of 10 μl of 10 × concentrated stock solution of compounds (dissolved in DMSO and further diluted in EtBr displacement assay buffer) to 90 μl of reaction mixture containing 6 μg of purified pBlueScript DNA and 1.3 μM EtBr in EtBr displacement assay buffer with final pH 7.4. Equivalent amounts of DMSO were added to the vehicle controls. In addition to control samples (DNA+EtBr), test samples (DNA+EtBr+test compounds), blank 1 (EtBr only), blank 2 (DNA only), wells containing DNA and compound were also prepared to test any change in the background fluorescence readings. The reduction in relative fluorescence counts was monitored ([…]) and recorded after 1 min equilibration time. Fascaplysin and actinomycin D, which are known to intercalate d-s DNA, were used as standard compounds in assay. The mean control and test readings were corrected by subtracting blank readings. The percentage fluorescence in the test samples in reaction with control samples was calculated by using following formula: […]

Test [5] concerns pBluescript plasmid DNA. The test can be described thus: Topoisomerase I catalysed DNA relaxation or unwinding assay. It is filed as biochemical. As to the method: For assay, 5 nM supercoiled pBluescript d-s plasmid DNA and 10 U of topoisomerase-I active enzyme were used in each reaction well. To ensure that the assay determines the DNA-intercalating property of compounds and not topoisomerase I inhibition, in a parallel experiment relaxed plasmid DNA was first prepared by treating with topo I enzyme for 30 min and then used as an initial substrate for the assay. DNA relaxation assays were performed in the presence or absence of compounds in 40 μl of DNA unwinding assay buffer. After 30 min incubation at 37 °C, reaction mixtures were treated with 3 μl of 250 mM EDTA and extracted with phenol/chloroform. The DNA was dissolved in tris-EDTA buffer, pH 8.0. The samples (20 μl) were treated with 2 μl of 2.5% SDS, mixed with 2.5 μl agarose gel loading buffer (10x) and subjected to electrophoresis on a 0.8% agarose gel without EtBr (separating the DNA in the presence of EtBr would convert the relaxed DNA into the supercoiled form). After the electrophoretic separation, DNA bands were stained with 1 μg/ml EtBr and visualized using a UV illuminator. The compounds were compared with fascaplysin, which is a known DNA-intercalating molecule. Camptothecin, which is a known topoisomerase- I inhibitor, was used to test the activity and inhibition of enzyme.

Test [6] has as its system LS174T (colorectal carcinoma; p53+, pRb+). The test can be described thus: Cell proliferation (MTT) assay, LS174T. The test is classed as cell-based. Particulars: Homo sapiens, 48 h, read-out: IC50 cell growth inhibition, LS174T. As for the experimental part: (§2) All 10 human cancer cell lines were maintained at 37 °C in 5% CO2 in RPMI-1640 medium, supplemented with 10% foetal calf serum and 100 μg/ml normocin. The 10 cancer cell lines used for screening were all obtained from ATCC (Manassas, VA, USA); they were the NSCLC (a form of cancer that is resistant to chemotherapy) lines: NCI-H460 (pRb^+, p53^+), A549 (pRb^+, p53^+), Calu-1 (pRb^+, p53-null), NCI-H1299 (pRb^+, p53-null), NCI-H358 (pRb-null, p53-null); the colon cancer line LS174T (pRb^+, p53^+); the prostate cancer line PC-3 (pRb^+, p53-null); the pancreatic cancer line MiaPaca (pRb^+, p53-mutant). The genotypes within brackets indicate the status of the tumour suppressor proteins pRb and p53. The mouse embryonic normal hepatic cell line (BNL CL2) and its SV40 large T-antigen-transformed counterpart cell line (BNL SV A.8) were also purchased from ATCC. The large T-antigen inactivates the tumour suppressor proteins p53 and pRb. The detailed procedure of cell proliferation (MTT) assay and IC50 determination was described previously.[32]

Test [7] concerns PC-3 (prostate; p53 null, pRb+). The test can be described thus: Cell proliferation (MTT) assay, PC-3. The settings on record: Homo sapiens, 48 h, read-out: IC50 cell growth inhibition, PC-3. The test is classed as cell-based. As for the experimental part:
as §2

Test [8] deals with MiaPaCa (pancreatic; p53His273mut, pRb+). The test can be described thus: Cell proliferation (MTT) assay, MiaPaCa. It is filed as cell-based. Particulars: Homo sapiens, MIA PaCa-2, 48 h, read-out: IC50 cell growth inhibition, MiaPaCa. As to the method:
as §2

For test [9], the system named is A549 (NSCLC; p53+, pRb+). The test can be described thus: Cell proliferation (MTT) assay, A549. It is filed as cell-based. The settings on record: Homo sapiens, 48 h, read-out: IC50 cell growth inhibition, A549. As for the experimental part:
as §2

Test [10] relates to Calu-1 (NSCLC; p53 null, pRb+). The test can be described thus: Cell proliferation (MTT) assay, Calu-1. It is filed as cell-based, human. The settings on record: Homo sapiens, Calu-1; 48 h, MTT; read-out: IC50 cell growth inhibition, Calu-1. As for the experimental part: as §2
Test [11] deals with Cdk4-cyclin D1 (Homo sapiens, UniProt P11802). On the set-up: method as in PMID 12941311, PMID 15165138. Particulars: cited from earlier work.

pIC50: −log10 of the molar value. Some results are limits rather than exact numbers.

Cdk9-cyclin T1, sequence (P50750 whole entry): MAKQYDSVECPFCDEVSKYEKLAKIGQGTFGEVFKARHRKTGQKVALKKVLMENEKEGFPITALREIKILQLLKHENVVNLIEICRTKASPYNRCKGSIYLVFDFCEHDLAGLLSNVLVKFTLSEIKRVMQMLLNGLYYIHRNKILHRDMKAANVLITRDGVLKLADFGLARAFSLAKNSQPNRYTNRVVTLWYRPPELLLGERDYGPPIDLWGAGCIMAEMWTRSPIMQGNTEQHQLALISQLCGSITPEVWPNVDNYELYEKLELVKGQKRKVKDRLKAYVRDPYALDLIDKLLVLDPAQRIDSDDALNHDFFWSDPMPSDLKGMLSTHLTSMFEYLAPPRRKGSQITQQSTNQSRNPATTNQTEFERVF
Cdk9-cyclin T1, sequence (O60563 whole entry partner): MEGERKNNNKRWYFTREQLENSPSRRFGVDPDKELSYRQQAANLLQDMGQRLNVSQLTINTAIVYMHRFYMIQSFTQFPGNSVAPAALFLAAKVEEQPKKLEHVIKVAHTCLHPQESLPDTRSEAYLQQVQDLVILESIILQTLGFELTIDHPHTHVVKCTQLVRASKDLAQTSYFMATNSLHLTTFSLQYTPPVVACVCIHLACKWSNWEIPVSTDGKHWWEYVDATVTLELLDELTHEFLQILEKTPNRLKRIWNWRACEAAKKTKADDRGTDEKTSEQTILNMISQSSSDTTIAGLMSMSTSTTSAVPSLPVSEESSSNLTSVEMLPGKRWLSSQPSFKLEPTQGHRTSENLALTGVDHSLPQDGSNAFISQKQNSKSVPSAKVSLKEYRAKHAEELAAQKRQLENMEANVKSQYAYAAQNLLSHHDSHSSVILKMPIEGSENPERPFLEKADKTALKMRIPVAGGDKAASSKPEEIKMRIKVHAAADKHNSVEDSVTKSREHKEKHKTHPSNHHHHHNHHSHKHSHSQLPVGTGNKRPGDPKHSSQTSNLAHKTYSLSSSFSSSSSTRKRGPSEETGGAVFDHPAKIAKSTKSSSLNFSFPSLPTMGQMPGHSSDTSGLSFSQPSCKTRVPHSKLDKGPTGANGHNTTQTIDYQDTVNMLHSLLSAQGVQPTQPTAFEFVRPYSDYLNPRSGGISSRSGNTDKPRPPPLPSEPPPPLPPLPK
Cdk4-cyclin D1, sequence (P11802 whole entry): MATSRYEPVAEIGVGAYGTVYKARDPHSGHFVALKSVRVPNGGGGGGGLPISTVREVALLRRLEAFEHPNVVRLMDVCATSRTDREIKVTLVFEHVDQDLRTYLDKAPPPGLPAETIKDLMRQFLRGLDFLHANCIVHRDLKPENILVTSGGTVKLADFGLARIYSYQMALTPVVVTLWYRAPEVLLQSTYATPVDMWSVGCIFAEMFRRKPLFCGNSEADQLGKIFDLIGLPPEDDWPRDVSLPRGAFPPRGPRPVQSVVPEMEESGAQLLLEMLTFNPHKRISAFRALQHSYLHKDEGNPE
Cdk4-cyclin D1, sequence (P24385 whole entry partner): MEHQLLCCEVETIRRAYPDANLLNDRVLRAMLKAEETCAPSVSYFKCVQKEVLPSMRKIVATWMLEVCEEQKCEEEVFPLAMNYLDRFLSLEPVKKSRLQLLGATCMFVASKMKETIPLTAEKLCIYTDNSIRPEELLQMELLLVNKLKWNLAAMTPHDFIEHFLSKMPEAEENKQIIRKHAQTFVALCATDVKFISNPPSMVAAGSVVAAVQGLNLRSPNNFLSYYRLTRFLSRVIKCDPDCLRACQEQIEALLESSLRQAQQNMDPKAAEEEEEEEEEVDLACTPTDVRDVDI
Cdk1-cyclin B1, sequence (P06493 whole entry): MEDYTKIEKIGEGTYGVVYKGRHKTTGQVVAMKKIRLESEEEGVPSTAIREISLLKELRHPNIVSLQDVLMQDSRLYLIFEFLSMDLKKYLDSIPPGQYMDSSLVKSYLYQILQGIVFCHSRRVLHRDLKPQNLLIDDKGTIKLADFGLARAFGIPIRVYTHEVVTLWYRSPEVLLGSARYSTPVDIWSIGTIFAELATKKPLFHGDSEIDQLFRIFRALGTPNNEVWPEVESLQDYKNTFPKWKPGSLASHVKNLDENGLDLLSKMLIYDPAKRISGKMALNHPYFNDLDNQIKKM
Cdk1-cyclin B1, sequence (P14635 whole entry partner): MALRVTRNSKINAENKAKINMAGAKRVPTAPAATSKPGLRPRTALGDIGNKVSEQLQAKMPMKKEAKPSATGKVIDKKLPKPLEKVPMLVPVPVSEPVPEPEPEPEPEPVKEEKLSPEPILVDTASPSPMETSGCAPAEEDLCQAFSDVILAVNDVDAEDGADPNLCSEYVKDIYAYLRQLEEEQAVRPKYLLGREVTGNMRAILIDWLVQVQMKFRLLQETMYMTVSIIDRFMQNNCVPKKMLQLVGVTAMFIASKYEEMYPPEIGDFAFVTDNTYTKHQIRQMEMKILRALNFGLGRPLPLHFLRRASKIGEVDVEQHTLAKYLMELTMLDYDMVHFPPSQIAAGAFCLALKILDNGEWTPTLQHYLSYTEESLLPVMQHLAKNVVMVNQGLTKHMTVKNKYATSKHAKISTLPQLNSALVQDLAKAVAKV

Take `O=C1c2ccccc2-[n+]2ccc3c([nH]c4ccccc43)c21` [Fascaplysin, fascaplysin, reference compound]: the negative logarithm of the IC50 (pIC50) in [1] was below 3.60; in [2] it was below 3.60; in [3] it was below 3.60; in test [6], 6.06; in test [7], 6.04; in [8] it was 6.06. In addition, the figures for the negative-log IC50 (pIC50) in [9], in [10] and in [11] were 6.16, 5.89 and around 6.46, respectively. For the same compound, the “EtBr displacement from DNA” value in test [4] (pH 7.4) was “Displaces EtBr at 1 μM”; in test [4] (pH 7.4, listed as fascaplysin), “readily dislodges the bound EtBr”. The “state of relaxed (negatively supercoiled) plasmid DNA after treatment” value in test [5] (relaxed pBluescript DNA as substrate, BPT up to 100 μM, fascaplysin 1 μM) was “does not remain intact”. In test [5] (supercoiled pBluescript DNA, fascaplysin 10 and 1 µM, BPT 10 and 100 µM), the “hindrance of topoisomerase-I catalysed DNA relaxation” value is on record as “hinder topoisomerase-I catalysed DNA relaxation”.

(Values after paper PMC4669722, “Antitumour potential of BPT: a dual inhibitor of cdk4 and tubulin polymerization” (Cell Death & Disease, 2015).)
